Type in all cases: cell-based
The target in assay [1] is mouse fibroblast cell line transfected with the HER-2 oncogene (3T3/neu) (UniProt P04626, cells depend on it, species not given). Put plainly: Cell proliferation assay (SRB), 3T3/neu. The following applies: EGFR −, Her-2 +++, 2 days, SRB; for GI50: read-out: CELL IC50 3T3/NEU (converted).
The test system of a further assay is A431 cells. Kind of assay: Cell proliferation assay (SRB), A431. The note with it: for IC50: Homo sapiens, A-431, 48 h, read-out: CELL IC50 A431.
The test system of another assay is SK-Br-3 cells. Kind of assay: Cell proliferation assay (SRB), SK-Br-3. The following applies: EGFR −, Her-2 +++, 2 days, SRB; for IC50: Homo sapiens, SK-BR-3, 48 h, read-out: CELL IC50 SKBr3.
Another assay concerns MDA-MB-435 cells. Put plainly: Cell proliferation assay (SRB), MDA-MB-435. The note with it: EGFR −, Her-2 −, 2 days, SRB; for IC50: Homo sapiens, MDA-MB-435, 48 h, read-out: CELL IC50 MDA-MB-435.
The test system of a further assay is SW620 cells. Kind of assay: Cell proliferation assay (SRB), SW620. The following applies: EGFR −, Her-2 −, 2 days, SRB; for IC50: Homo sapiens, SW-620, 48 h, read-out: CELL IC50 SW620.

The values below come from US7982043B2, “Protein tyrosine kinase enzyme inhibitors” (Wyeth LLC, priority 2003, dated 2011).

Converted amounts (≈) assume the structure as drawn. Like-named read-outs stand apart in the source and are kept apart here.

For `COc1cc2ncc(C#N)c(Nc3ccc(N(Cc4cccnc4)C(C)=O)c(Cl)c3)c2cc1NC(=O)/C=C/CN(C)C` [Example 47], in assay [1], the “CELL IC50 3T3/NEU” value is more than 5 µg/mL. In the assay with A431 cells (EGFR +++, Her-2 +, 2 days, SRB), the “CELL IC50 A431” value came to 0.646 µg/mL. The “CELL IC50 SKBr3” value in the assay on SK-Br-3 cells is more than 5 µg/mL. The “CELL IC50 MDA-MB-435” value in the assay with MDA-MB-435 cells was 1.16 µg/mL. The “CELL IC50 SW620” value in the assay with SW620 cells amounted to 1.64 µg/mL.
On to `COc1cc2ncc(C#N)c(Nc3ccc(N(Cc4cccnc4)C(C)=O)c(Cl)c3)c2cc1[N+](=O)[O-]` [Example 48], for which the “CELL IC50 3T3/NEU” value in assay [1] was found to be 1.79 µg/mL. Also, in the assay with A431 cells (EGFR +++, Her-2 +, 2 days, SRB), the “CELL IC50 A431” value came out at 1.6 µg/mL. Also, in the assay on SK-Br-3 cells, the “CELL IC50 SKBr3” value came out at 0.68 µg/mL. The “CELL IC50 MDA-MB-435” value in the assay on MDA-MB-435 cells turned out to be 2.61 µg/mL. The “CELL IC50 SW620” value with SW620 cells was determined as 2.57 µg/mL.
For the molecule `COc1cc2ncc(C#N)c(Nc3ccc(N(Cc4cccnc4)C(C)=O)c(Cl)c3)c2cc1N` [Example 49], the “CELL IC50 3T3/NEU” value in assay [1] is 2.4 µg/mL. For the same molecule, in the assay with A431 cells (EGFR +++, Her-2 +, 2 days, SRB), the “CELL IC50 A431” value is more than 5 µg/mL. The “CELL IC50 SKBr3” value with SK-Br-3 cells was determined as 3.41 µg/mL. In the assay on MDA-MB-435 cells, the “CELL IC50 MDA-MB-435” value stood at 3.76 µg/mL. For the same molecule, in the assay on SW620 cells, the “CELL IC50 SW620” value was more than 5 µg/mL.
In the case of `COc1cc2ncc(C#N)c(Nc3ccc(N(Cc4cccnc4)C(C)=O)c(Cl)c3)c2cc1NC(C)=O` [Example 50], the “CELL IC50 3T3/NEU” value in assay [1] is more than 5 µg/mL. Besides, in the assay on A431 cells (EGFR +++, Her-2 +, 2 days, SRB), the “CELL IC50 A431” value turned out to be 3.68 µg/mL. Further, in the assay on SK-Br-3 cells, the “CELL IC50 SKBr3” value stood at 3.94 µg/mL. The “CELL IC50 MDA-MB-435” value with MDA-MB-435 cells is more than 5 µg/mL. Moreover, in the assay on SW620 cells, the “CELL IC50 SW620” value is more than 5 µg/mL.
As for `CCOc1cc2ncc(C#N)c(Nc3ccc(Nc4nnc(C(F)(F)F)s4)c(Cl)c3)c2cc1[N+](=O)[O-]` [Example 52, 4-(3-chloro-4-{[5-(trifluoromethyl)-1,3,4-thiadiazol-2-yl]amino}anilino)-7-ethoxy-6-nitro-3-quinolinecarbonitrile], the GI50 in assay [1] was 3.53 µM. In addition, the IC50 with A431 cells (EGFR +++, Her-2 +, 2 days, SRB) worked out at 1.79 µg/mL (≈ 3.34 µM); in the assay on SK-Br-3 cells it was 1.22 µg/mL (≈ 2.28 µM); in the assay on MDA-MB-435 cells it was 1.84 µg/mL (≈ 3.43 µM); with SW620 cells it was 2.54 µg/mL (≈ 4.74 µM).
For the molecule `CCOc1cc2ncc(C#N)c(Nc3ccc(Nc4nnc(C(F)(F)F)s4)c(Cl)c3)c2cc1NC(=O)/C=C/CN(C)C` [Example 53, (E)-N-[4-(3-chloro-4-{[5-(trifluoromethyl)-1,3,4-thiadiazol-2-yl]amino}anilino)-3-cyano-7-ethoxy-6-quinolinyl]-4-(dimethylamino)-2-butenamide], the GI50 in assay [1] was 1.44 µM. The IC50 in the assay with A431 cells (EGFR +++, Her-2 +, 2 days, SRB) amounted to 0.728 µg/mL (≈ 1.18 µM); in the assay with SK-Br-3 cells, 0.179 µg/mL (≈ 0.29 µM); in the assay with MDA-MB-435 cells, 0.95 µg/mL (≈ 1.54 µM); in the assay on SW620 cells, 1.05 µg/mL (≈ 1.7 µM).
Taken in the same sequence, the figures for `CCOc1cc2ncc(C#N)c(Nc3ccc(Oc4ccncc4)c(Cl)c3)c2cc1[N+](=O)[O-]` [Example 54, 4-[3-chloro-4-(4-pyridinyloxy)anilino]-7-ethoxy-6-nitro-3-quinolinecarbonitrile] were more than 10.8 µM, more than 5 µg/mL, more than 5 µg/mL, 2.54 µg/mL (≈ 5.5 µM) and more than 5 µg/mL.
For `CCOc1cc2ncc(C#N)c(Nc3ccc(Oc4ccncc4)c(Cl)c3)c2cc1N` [Example 55, 6-amino-4-[3-chloro-4-(4-pyridinyloxy)anilino]-7-ethoxy-3-quinolinecarbonitrile] the same measures were more than 11.6 µM, more than 5 µg/mL, more than 5 µg/mL, 1.61 µg/mL (≈ 3.73 µM) and more than 5 µg/mL.
Turning to `CCOc1cc2ncc(C#N)c(Nc3ccc(Oc4ccncc4)c(Cl)c3)c2cc1NC(=O)/C=C/CN(C)C` [Example 56, (E)-N-{4-[3-chloro-4-(4-pyridinyloxy)anilino]-3-cyano-7-ethoxy-6-quinolinyl}-4-(dimethylamino)-2-butenamide], in assay [1], the GI50 was more than 9.21 µM. Moreover, the IC50 with A431 cells is 3.27 µg/mL (≈ 6.02 µM); in the assay with SK-Br-3 cells, 1.51 µg/mL (≈ 2.78 µM); in the assay with MDA-MB-435 cells, 2.06 µg/mL (≈ 3.79 µM); in the assay on SW620 cells it was more than 5 µg/mL.
`COc1cc2ncc(C#N)c(Nc3ccc(NCc4cccnc4)c(Cl)c3)c2cc1[N+](=O)[O-]` [Example 57, 4-{3-chloro-4-[(3-pyridinylmethyl)amino]anilino}-7-methoxy-6-nitro-3-quinolinecarbonitrile]: the GI50 in assay [1] is 8.74 µM. Also, the IC50 was 1.6 µg/mL (≈ 3.47 µM) with A431 cells (EGFR +++, Her-2 +, 2 days, SRB); 0.726 µg/mL (≈ 1.58 µM) with SK-Br-3 cells; 1.87 µg/mL (≈ 4.06 µM) with MDA-MB-435 cells; 3.21 µg/mL (≈ 6.96 µM) in the assay with SW620 cells.
Taken in the same sequence, the figures for `CCOc1cc2ncc(C#N)c(Nc3ccc(Nc4nnc(C(F)(F)F)s4)c(Cl)c3)c2cc1N` [Example 59, 6-amino-4-(3-chloro-4-{[5-(trifluoromethyl)-1,3,4-thiadiazol-2-yl]amino}anilino)-7-ethoxy-3-quinolinecarbonitrile] were more than 9.88 µM, more than 5 µg/mL, 0.551 µg/mL (≈ 1.09 µM), 0.91 µg/mL (≈ 1.8 µM) and 1.38 µg/mL (≈ 2.73 µM).
In the case of `CCOc1cc2ncc(C#N)c(Nc3ccc(Cn4ccnc4)c(Cl)c3)c2cc1[N+](=O)[O-]` [Example 60, 4-[3-chloro-4-(1H-imidazol-1-ylmethyl)anilino]-7-ethoxy-6-nitro-3-quinolinecarbonitrile], the GI50 in assay [1] is more than 11.1 µM. Moreover, the IC50 in the assay on A431 cells (EGFR +++, Her-2 +, 2 days, SRB) is more than 5 µg/mL; in the assay on SK-Br-3 cells, 2.44 µg/mL (≈ 5.44 µM); with MDA-MB-435 cells, more than 5 µg/mL; in the assay on SW620 cells, more than 5 µg/mL.
With `CCOc1cc2ncc(C#N)c(Nc3ccc(Cn4ccnc4)c(Cl)c3)c2cc1N` [Example 61, 6-amino-4-[3-chloro-4-(1H-imidazol-1-ylmethyl)anilino]-7-ethoxy-3-quinolinecarbonitrile], the GI50 in assay [1] was more than 11.9 µM. In addition, the IC50 was more than 5 µg/mL in the assay on A431 cells (EGFR +++, Her-2 +, 2 days, SRB); 0.75 µg/mL (≈ 1.79 µM) in the assay on SK-Br-3 cells; more than 5 µg/mL in the assay on MDA-MB-435 cells; more than 5 µg/mL in the assay with SW620 cells.
For `CCOc1cc2ncc(C#N)c(Nc3ccc(Cn4ccnc4)c(Cl)c3)c2cc1NC(=O)/C=C/CN(C)C` [Example 62, (E)-N-{4-[3-chloro-4-(1H-imidazol-1-ylmethyl)anilino]-3-cyano-7-ethoxy-6-quinolinyl}-4-(dimethylamino)-2-butenamide], in assay [1], the GI50 was 1.87 µM. Moreover, the IC50 turned out to be 0.95 µg/mL (≈ 1.79 µM) with A431 cells, 0.045 µg/mL (≈ 0.0849 µM) in the assay with SK-Br-3 cells, 2.1 µg/mL (≈ 3.96 µM) with MDA-MB-435 cells and 3.8 µg/mL (≈ 7.17 µM) with SW620 cells.
As to `CCOc1cc2ncc(C#N)c(Nc3ccc(Sc4nccc(C)n4)c(Cl)c3)c2cc1[N+](=O)[O-]` [Example 63, 4-{3-chloro-4-[(4-methyl-2-pyrimidinyl)sulfanyl]anilino}-7-ethoxy-6-nitro-3-quinolinecarbonitrile], the GI50 in assay [1] is 3.02 µM. The IC50 with A431 cells (EGFR +++, Her-2 +, 2 days, SRB) amounted to 1.2 µg/mL (≈ 2.43 µM); in the assay with SK-Br-3 cells it was 0.45 µg/mL (≈ 0.913 µM); in the assay on MDA-MB-435 cells, 1.3 µg/mL (≈ 2.64 µM); in the assay with SW620 cells, 0.9 µg/mL (≈ 1.83 µM).
Take `CCOc1cc2ncc(C#N)c(Nc3ccc(Sc4nccc(C)n4)c(Cl)c3)c2cc1N` [Example 64, 6-amino-4-{3-chloro-4-[(4-methyl-2-pyrimidinyl)sulfanyl]anilino}-7-ethoxy-3-quinolinecarbonitrile]: the GI50 in assay [1] was 6.54 µM. In addition, the IC50 is 1.53 µg/mL (≈ 3.3 µM) in the assay with A431 cells (EGFR +++, Her-2 +, 2 days, SRB); more than 5 µg/mL with SK-Br-3 cells; 1.8 µg/mL (≈ 3.89 µM) in the assay with MDA-MB-435 cells; 2 µg/mL (≈ 4.32 µM) in the assay on SW620 cells.
Consider `CCOc1cc2ncc(C#N)c(Nc3ccc(Sc4nccc(C)n4)c(Cl)c3)c2cc1NC(=O)/C=C/CN(C)C` [Example 65, (E)-N-(4-{3-chloro-4-[(4-methyl-2-pyrimidinyl)sulfanyl]anilino}-3-cyano-7-ethoxy-6-quinolinyl)-4-(dimethylamino)-2-butenamide], for which the GI50 in assay [1] was 0.00523 µM. Moreover, the IC50 stood at 0.12 µg/mL (≈ 0.209 µM) in the assay on A431 cells (EGFR +++, Her-2 +, 2 days, SRB); 0.001 µg/mL (≈ 0.00174 µM) in the assay with SK-Br-3 cells; 0.3 µg/mL (≈ 0.523 µM) in the assay with MDA-MB-435 cells; 0.2 µg/mL (≈ 0.348 µM) in the assay on SW620 cells.
Take `CCOc1cc2ncc(C#N)c(Nc3ccc(Sc4nc(C)cc(C)n4)c(Cl)c3)c2cc1NC(=O)/C=C/CN(C)C` [Example 66, (E)-N-(4-{3-chloro-4-[(4,6-dimethyl-2-pyrimidinyl)sulfanyl]anilino}-3-cyano-7-ethoxy-6-quinolinyl)-4-(dimethylamino)-2-butenamide]: the GI50 in assay [1] was 0.017 µM. The IC50 amounted to 0.24 µg/mL (≈ 0.408 µM) in the assay with A431 cells (EGFR +++, Her-2 +, 2 days, SRB); 0.006 µg/mL (≈ 0.0102 µM) in the assay on SK-Br-3 cells; 0.2 µg/mL (≈ 0.34 µM) with MDA-MB-435 cells; 0.32 µg/mL (≈ 0.544 µM) in the assay on SW620 cells.
Take `CCOc1cc2ncc(C#N)c(Nc3ccc(Sc4nc(-c5ccccc5)cs4)c(C(F)(F)F)c3)c2cc1[N+](=O)[O-]` [Example 67, 7-ethoxy-6-nitro-4-[4-[(4-phenyl-1,3-thiazol-2-yl)sulfanyl]-3-(trifluoromethyl)anilino]-3-quinolinecarbonitrile]: the GI50 in assay [1] is 1.15 µM. The IC50 in the assay with A431 cells (EGFR +++, Her-2 +, 2 days, SRB) amounted to 0.76 µg/mL (≈ 1.28 µM); with SK-Br-3 cells, 0.268 µg/mL (≈ 0.451 µM); with MDA-MB-435 cells, 0.4 µg/mL (≈ 0.674 µM); in the assay with SW620 cells it was 0.4 µg/mL (≈ 0.674 µM).
As for `CCOc1cc2ncc(C#N)c(Nc3ccc(Sc4nc(-c5ccccc5)cs4)c(C(F)(F)F)c3)c2cc1N` [Example 68, 6-Amino-7-ethoxy-4-[4-(4-phenyl-thiazol-2-ylsulfanyl)-3-trifluoromethyl-phenylamino]-quinoline-3-carbonitrile], in assay [1], the GI50 is 4.47 µM. For the same molecule, the IC50 in the assay on A431 cells (EGFR +++, Her-2 +, 2 days, SRB) was more than 5 µg/mL; with SK-Br-3 cells it was 0.943 µg/mL (≈ 1.67 µM); in the assay on MDA-MB-435 cells, 2.5 µg/mL (≈ 4.44 µM); with SW620 cells it was 3.1 µg/mL (≈ 5.5 µM).

What is called IC50 is the concentration needed to halve the response being measured.
